In patent US20230124361A1, “SMALL MOLECULE STING ANTAGONISTS” (CURADEV PHARMA PVT. LTD., priority 2020, published 2023):

Target: T1, STING (Homo sapiens, UniProt Q86WV6, G230A/H232R/R293Q/R71H)
T1 construct: host or cells: THP1-Dual cells (human THP-1 monocyte line with Lucia/SEAP reporters)
Assay: Reporter gene expression assay in THP1-Dual cells (IRF pathway Lucia luciferase, 2',3'-cGAMP stimulation)
Format: cell-based
Details: 10 min preincubation, 5 μM 2',3'-cGAMP, 20 hr, IRF reporter QUANTI-Luc, read-out: THP-1 (HAQ) Activity
Protocol: Reporter Gene Expression Assay in THP-1 Cells
THP1-Dual™ cells (Invivogen) were derived from the human THP-1 monocyte cell line by stable integration of two inducible reporter constructs. As a result, THP1-Dual™ cells allow the simultaneous study of the IRF pathway, by assessing the activity of a secreted luciferase (Lucia) and the NF-κB pathway, by monitoring the activity of secreted SEAP. 5×10^4 THP1-Dual™ cells were seeded in 384-well plates in growth medium and preincubated with novel compounds for 10 minutes followed by stimulation with 5 μM 2′,3′-cGAMP. After 20 hr of stimulation the supernatant was removed and the IRF pathway reporter protein was readily measured in the cell culture supernatant using QUANTI-Luc™ (Invivogen), a luciferase detection reagent on a Spectramax i3X luminometer.
In the tables below, IC50 value ranges for exemplary compounds are given. The IC50 ranges are indicated as “A” for values less than or equal to 1 μM, “B” for values greater than 1 μM and less than or equal to 10 μM, and “C” for values greater than 10 μM.

T1 sequence (Q86WV6 whole entry R71H/G230A/H232R/R293Q): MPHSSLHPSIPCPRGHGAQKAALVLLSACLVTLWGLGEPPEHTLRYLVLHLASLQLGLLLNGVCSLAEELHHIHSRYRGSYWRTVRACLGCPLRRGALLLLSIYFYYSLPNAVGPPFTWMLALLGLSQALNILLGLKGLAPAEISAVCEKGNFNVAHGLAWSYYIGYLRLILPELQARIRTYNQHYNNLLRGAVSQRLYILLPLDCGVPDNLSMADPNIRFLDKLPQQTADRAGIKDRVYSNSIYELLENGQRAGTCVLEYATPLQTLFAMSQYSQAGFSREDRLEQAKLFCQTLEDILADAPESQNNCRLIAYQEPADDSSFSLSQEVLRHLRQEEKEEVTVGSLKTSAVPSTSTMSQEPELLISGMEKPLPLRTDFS

IC50	SMILES
1000 to 10000 nM	O=C(Nc1ccc2c(c1)N(Cc1ccccc1)CCO2)Nc1ccc2cc[nH]c2c1 [Example 56, 1-(4-benzyl-3,4-dihydro-2H-benzo[b][1, 4]oxazin-6-yl)-3-(1H-indol-6-yl)urea]
> 10000 nM	O=C(Nc1ccc2c(c1)N(C(=O)c1ccccc1)CCS2)Nc1ccc2cc[nH]c2c1 [Example 57, 1-(4-benzoyl-3,4-dihydro-2H-benzo[b][1, 4]thiazin-6-yl)-3-(1H-indol-6-yl)urea]
> 10000 nM	O=C(Nc1ccc2c(c1)OCCN2Cc1ccccc1)Nc1ccc2cc[nH]c2c1 [Example 62, 1-(4-Benzyl-3,4-dihydro-2H-benzo[b][1,4]oxazin-7-yl)-3-(1H-indol-6-yl)urea]
> 10000 nM	O=C(Nc1ccc2c(c1)SCCN2Cc1ccccc1)Nc1ccc2cc[nH]c2c1 [Example 63, 1-(4-benzyl-3,4-dihydro-2H-benzo[b][1, 4]thiazin-7-yl)-3-(1H-indol-6-yl)urea]
≤ 1000 nM	O=C(Nc1ccc2c(c1)N(Cc1ccncc1)CCS2)Nc1ccc2cc[nH]c2c1 [Example 66, 1-(1H-indol-6-yl)-3-(4-(pyridin-4-ylmethyl)-3,4-dihydro-2H-benzo[b][1, 4]thiazin-6-yl)urea]
≤ 1000 nM	O=C(Nc1ccc2c(c1)OCC(=O)N2Cc1ccccc1)Nc1ccc2cc[nH]c2c1 [Example 69, 1-(4-Benzyl-3-oxo-3,4-dihydro-2H-benzo[b][1,4]oxazin-7-yl)-3-(1H-indol-6-yl)urea]
≤ 1000 nM	O=C(Nc1ccc2c(c1)N(c1ccccc1)CCS2)Nc1ccc2cc[nH]c2c1 [Example 72, 3-(1H-Indol-6-yl)-3-(4-phenyl-3,4-dihydro-2H-benzo[b][1,4]thiazin-6-yl)urea]
1000 to 10000 nM	CN1CCN(Cc2ccccc2)c2cc(NC(=O)Nc3ccc4cc[nH]c4c3)ccc21 [Example 73, 1-(4-Benzyl-1-methyl-1,2,3,4-tetrahydroquinoxalin-6-yl)-3-(1H-indol-6-yl)urea]
1000 to 10000 nM	O=C(Nc1ccc2c(c1)N(Cc1ccccc1)CC2)Nc1ccc2cc[nH]c2c1 [Example 74, 1-(1-Benzylindolin-6-yl)-3-(1H-indol-6-yl)urea]
1000 to 10000 nM	NC(=O)CC1Sc2ccc(NC(=O)Nc3ccc4cc[nH]c4c3)cc2N(Cc2ccccc2)C1=O (stereo not drawn) [Example 76, 2-(6-(3-(1H-Indol-6-yl)ureido)-4-benzyl-3-oxo-3,4-dihydro-2H-benzo[b][1,4]thiazin-2-yl)acetamide]
1000 to 10000 nM	N#CCC1Sc2ccc(NC(=O)Nc3ccc4cc[nH]c4c3)cc2N(Cc2ccccc2)C1=O (stereo not drawn) [Example 77]
≤ 1000 nM	C=CCC1COc2ccc(NC(=O)Nc3ccc4cc[nH]c4c3)cc2N1Cc1ccccc1 (stereo not drawn) [Example 78, 1-(3-Allyl-4-benzyl-3,4-dihydro-2H-benzo[b][1,4]oxazin-6-yl)-3-(1H-indol-6-yl)urea]
1000 to 10000 nM	O=C(Nc1ccc2c(c1)N(Cc1ccccc1)C(CC(O)CO)CO2)Nc1ccc2cc[nH]c2c1 (stereo not drawn) [Example 79, 1-(4-Benzyl-3-(2,3-dihydroxypropyl)-3,4-dihydro-2H-benzo[b][1,4]oxazin-6-yl)-3-(1H-indol-6-yl)urea]
1000 to 10000 nM	O=C(Nc1ccc2c(c1)N(Cc1ccccc1)C(CCO)CO2)Nc1ccc2cc[nH]c2c1 (stereo not drawn) [Example 80, 1-(4-Benzyl-3-(2-hydroxyethyl)-3-,4-dihydro-2H-benzo[b][1,4]oxazin-6-yl)-3-(1H-indol-6-yl)urea]
1000 to 10000 nM	N#CC1COc2ccc(NC(=O)Nc3ccc4cc[nH]c4c3)cc2N1Cc1ccccc1 (stereo not drawn) [Example 81, 1-(4-Benzyl-3-cyano-3,4-dihydro-2H-benzo[b][1,4]oxazin-6-yl)-3-(1H-indol-6-yl)urea]
> 10000 nM	NCC1COc2ccc(NC(=O)Nc3ccc4cc[nH]c4c3)cc2N1Cc1ccccc1 (stereo not drawn) [Example 82]
1000 to 10000 nM	NC(=O)C1COc2ccc(NC(=O)Nc3ccc4cc[nH]c4c3)cc2N1Cc1ccccc1 (stereo not drawn) [Example 83]
1000 to 10000 nM	O=C(Nc1ccc2c(c1)N(C(CO)c1ccccc1)CCO2)Nc1ccc2cc[nH]c2c1 (stereo not drawn) [Example 85, 1-(4-(2-Hydroxy-1-phenylethyl)-3,4-dihydro-2H-benzo[b][1,4]oxazin-6-yl)-3-(1H-indol-6-yl)urea]
1000 to 10000 nM	CC1(C)Oc2cc(NC(=O)Nc3ccc4cc[nH]c4c3)ccc2N(Cc2ccccc2)C1=O [Example 90, 1-(4-benzyl-2,2-dimethyl-3-oxo-3,4-dihydro-2H-benzo[b][1, 4]oxazin-7-yl)-3-(1H-indol-6-yl)urea]

The next lines start with the compound.

SMILES	IC50
Nc1cccc(CN2C(=O)CSc3ccc(NC(=O)Nc4ccc5cc[nH]c5c4)cc32)c1 [Example 53, l-(4-(3-aminobenzyl)-3-oxo-3,4-dihydro-2H-benzo[b][1, 4]thiazin-6-yl)-3-(1H-indol-6-yl)urea]	> 10000 nM
O=C(Nc1ccc2c(c1)N(Cc1ccccc1)C(=O)CS2)c1ccc2cc[nH]c2c1 [Example 55, N-(4-benzyl-3-oxo-3,4-dihydro-2H-benzo[b][1,4]thiazin-6-yl)-1H-indole-6-carboxamide]	1000 to 10000 nM
CN(C(=O)Nc1ccc2c(c1)N(Cc1ccccc1)C(=O)CS2)c1ccc2cc[nH]c2c1 [Example 59, 3-(4-benzyl-3-oxo-3,4-dihydro-2H-benzo[b][1, 4]thiazin-6-yl)-l-(1H-indol-6-yl)-1-methylurea]	1000 to 10000 nM
Cc1cc(CN2C(=O)CSc3ccc(NC(=O)Nc4ccc5cc[nH]c5c4)cc32)ccn1 [Example 60]	1000 to 10000 nM
O=C(Nc1ccc2c(c1)N(Cc1ccccc1)CCS2)Nc1c[nH]c2ccccc12 [Example 64, 1-(4-benzyl-3,4-dihydro-2H-benzo[b][1, 4]thiazin-6-yl)-3-(1H-indol-3-yl)urea]	1000 to 10000 nM
O=C(Nc1ccc2c(c1)N(CC1CC1)CCS2)Nc1ccc2cc[nH]c2c1 [Example 65, 1-(4-(cyclopropyl-methyl)-3,4-dihydro-2H-benzo[b][1, 4]thiazin-6-yl)-3-(1H-indol-6-yl)urea]	≤ 1000 nM
O=C(Nc1ccc2c(c1)N(CC1CCCC1)CCS2)Nc1ccc2cc[nH]c2c1 [Example 67, 1-(4-(cyclopentylmethyl)-3,4-dihydro-2H-benzo[b][1, 4]thiazin-6-yl)-3-(1H-indol-6-yl)urea]	≤ 1000 nM
O=C(Nc1ccc2c(c1)N(CCN1CCCC1)CCS2)Nc1ccc2cc[nH]c2c1 [Example 68, 1-(1H-indol-6-yl)-3-(4-(2-(pyrrolidin-1-yl)ethyl)-3,4-dihydro-2H-benzo[b][1, 4]thiazin-6-yl)urea]	1000 to 10000 nM
O=C(Nc1ccc2c(c1)OCC(=O)N2c1ccccc1)Nc1ccc2cc[nH]c2c1 [Example 75, 1-(1H-Indol-6-yl)-3-(3-oxo-4-phenyl-3,4-dihydro-2H-benzo[b][1,4]oxazin-7-yl)urea]	1000 to 10000 nM
NC(=O)C(c1ccccc1)N1CCOc2ccc(NC(=O)Nc3ccc4cc[nH]c4c3)cc21 (stereo not drawn) [Example 84, 2-(6-(3-(1H-Indol-6-yl)ureido)-2,3-dihydro-4H-benzo[b][1,4]oxazin-4-yl)-2-phenylacetamide]	1000 to 10000 nM
COC(=O)C(c1ccccc1)N1CCOc2ccc(NC(=O)Nc3ccc4cc[nH]c4c3)cc21 (stereo not drawn) [Example 86]	1000 to 10000 nM
CN1C(=O)CSc2ccc(NC(=O)Nc3ccc4cc[nH]c4c3)cc21 [Example 87, 1-(1H-indol-6-yl)-3-(4-methyl-3-oxo-3,4-dihydro-2H-benzo[b][1, 4]thiazin-6-yl)urea]	1000 to 10000 nM
O=C1COc2cc(NC(=O)Nc3ccc4cc[nH]c4c3)ccc2N1 [Example 88, 1-(1H-indol-6-yl)-3-(3-oxo-3,4-dihydro-2H-benzo[b][1, 4]oxazin-7-yl)urea]	> 10000 nM
O=C(Nc1ccc2c(c1)SCC(=O)N2Cc1c(F)cccc1Cl)Nc1ccc2cc[nH]c2c1 [Example 89, 1-(4-(2-chloro-6-fluorobenzyl)-3-oxo-3,4-dihydro-2H-benzo[b][1, 4]thiazin-7-yl)-3-(1H-indol-6-yl)urea]	≤ 1000 nM
Cc1cc2cc[nH]c2cc1NC(=O)Nc1ccc2c(c1)OCC(=O)N2Cc1ccccc1 [Example 91, 1-(4-benzyl-3-oxo-3,4-dihydro-2H-benzo[b][1, 4]oxazin-7-yl)-3-(5-methyl-1H-indol-6-yl)urea]	> 10000 nM
Cc1cc2ccc(NC(=O)Nc3ccc4c(c3)OCC(=O)N4Cc3ccccc3)cc2[nH]1 [Example 92, 1-(4-benzyl-3-oxo-3,4-dihydro-2H-benzo[b][1, 4]oxazin-7-yl)-3-(2-methyl-1H-indol-6-yl)urea]	1000 to 10000 nM
O=C(Nc1ccc2c(c1)OCC(=O)N2Cc1c(F)cccc1Cl)Nc1ccc2cc[nH]c2c1 [Example 93, l-(4-(2-chloro-6-fluorobenzy 1)-3-oxo-3,4-dihydro-2H-benzo[b][i, 4]oxazin-7-yl)-3-(1H-indol-6-yl)urea]	1000 to 10000 nM
O=C(Nc1ccc2c(c1)OCC(=O)N2Cc1ccc(F)cc1Cl)Nc1ccc2cc[nH]c2c1 [Example 94, 1-(4-(2-chloro-4-fluorobenzy 1)-3-oxo-3,4-dihydro-2H-benzo[b][1,4]oxazin-7-yl)-3-(1H-indol-6-yl)urea]	≤ 1000 nM
O=C(Nc1ccc2c(c1)OCC(=O)N2Cc1cccc(F)c1F)Nc1ccc2cc[nH]c2c1 [Example 95, 1-(4-(2,3-difluorobenzyl)-3-oxo-3,4-dihydro-2H-benzo[b][1, 4]oxazin-7-yl)-3-(1H-indol-6-yl)urea]	≤ 1000 nM
O=C(Nc1ccc2c(c1)OCC(=O)N2Cc1c(F)cccc1F)Nc1ccc2cc[nH]c2c1 [Example 96, 1-(4-(2,6-difluorobenzyl)-3-oxo-3,4-dihydro-2H-benzo [b][1, 4]oxazin-7-yl)-3-(1H-indol-6-yl)urea]	> 10000 nM
